According to patent US11827917B1, “Methods for the conversion of fermentable sugars to ethanol” (Colorado State University Research Foundation, priority 2020, dated 2023):
“Also recorded” adds a separate entry of the source. Marks after values point to notes of the source that are not given here.

Legend:
Type in all cases: cell-based, Saccharomyces cerevisiae
S. cerevisiae JAY 270 = experiment: Screening of growth in 24-well plates on YPDA; details: for Cell growth score (colony size): YPDA, 30° C., 24 h
Method: Procedure: An inoculum culture of S. cerevisiae JAY 270 was grown in 100 mL of yeast extract-peptone-dextrose (YPD) medium (10 g/L yeast extract, 20 g/L peptone, 20 g/L glucose) in 200-mL serum bottles overnight in a shaker at 30° C. and 200 rpm. The cells were collected by centrifuging 10 min at 4000×g and 4° C. To wash off the medium residue, the cell pellet was resuspended in 30 mL of sterile 0.8% (w/v) NaCl solution and centrifuged at 4000×g for 10 min. The cell pellet was washed twice. Finally, the cell pellet was resuspended and diluted in 0.8% (w/v) NaCl to achieve cell concentrations of OD600=0.02 and 0.2.
The eight compounds were added in YPDA separately at 0.03%, 0.05%, 0.1%, and 0.2% (w/v). The standard control treatment contained only YPDA medium without addition of these compounds. Since the TrpOH and TyrOH stock solutions were dissolved in DMSO, the controls for those tests were YPDA with the same concentration of DMSO. A 3-mL aliquot of YPDA medium with or without the test compounds were loaded in each well of the 24-well plate.
Ten μL of the prepared S. cerevisiae JAY 270 cell suspension at OD600=0.02 or 0.2 was loaded onto the YPDA medium in each well of the 24-well plates. Then the plates were sealed with Parafilm and incubated at 30° C. for 24 h. There were four biological replicates for each treatment.
Yeast cell growth was evaluated by visual observation of the colony size in the well and scored as 0, +, ++, and +++.

S. cerevisiae ATCC 26603 = experiment: Serum-bottle cultivation in YPD, different yeast strains; details: 0.2%
Method: (§1) Analytical methods: Cell growth was evaluated by monitoring OD600 and cell dry mass concentration. For dry mass measurements, 1.0 mL of culture was transferred to a pre-dried and pre-weighed 2-mL centrifuge tube. The tubes were centrifuged for 10 min at 14000 rpm using a microcentrifuge, and then the cell pellets were dried in an oven for 3 days at 65° C. The cell dry mass was determined by subtracting the initial tube mass from the dried mass of tube with cells. The concentrations of glucose, ethanol, and glycerol were measured via HPLC (Shimadzu LC20A series) outfitted with a refractive index detector and using an Aminex HPX-87H (300×7.8 mm) organic acid column and Cation H+ guard cartridge (Bio Rad Laboratories, Hercules, CA). The column was maintained at 65° C. and the mobile phase was 5 mM sulfuric acid with a flow rate of 0.6 mL/min. Standard compound solutions were used to calibrate the HPLC. Each sample was analyzed three times by HPLC.
(§2) Procedure: Seven yeast strains (S. cerevisiae ATCC 26603, S. cerevisiae JAY 238, S. cerevisiae JAY 240, S. cerevisiae JAY 241, S. paradoxus JAY 1502, S. kudriavzezii JAY 1503, and S. mikatae JAY 1504) were pre-cultured in 30 mL of YPD medium in 100 mL serum bottle overnight in a shaker at 30° C. and 200 rpm. The precultured yeast cells of each strains were collected and washed twice. Finally, the cell pellet was resuspended in about 10 mL 0.8% (w/v) NaCl and the OD600 measured. TyrOH, PheOH, and TrpOH were added to 30 mL of YPD medium in 100-mL serum bottles at 0.2% (w/v) respectively. The same amount of DMSO was added in YPD medium and served as control to the TrpOH and TyrOH treatments. The prepared yeast cells were added to obtain the initial cell concentration at OD600=0.2. The serum bottles were sealed and cultured in a shaker at 30° C. and 200 rpm for 24 h. There were three biological replicates for each treatment.

S. cerevisiae JAY 238 = experiment: as above; details: 0.2%
Method: as §1, §2

S. cerevisiae JAY 240 = experiment: as above; details: 0.2%
Method: as §1, §2

S. cerevisiae JAY 241 = experiment: as above; details: 0.2%
Method: as §1, §2

[1] = S. cerevisiae ATCC 26603, YPD (Table 9B)
[2] = S. cerevisiae JAY 238, YPD (Table 9B)
[3] = S. cerevisiae JAY 240, YPD (Table 9B)
[4] = S. cerevisiae JAY 241, YPD (Table 9B)

## OCCc1ccc(O)cc1 [TyrOH, Tyrosol]
S. cerevisiae JAY 270; 0.03% (w/v)
  Cell growth score (colony size): +++
S. cerevisiae JAY 270; 0.05% (w/v)
  Cell growth score (colony size): +++
S. cerevisiae JAY 270; 0.10% (w/v)
  Cell growth score (colony size): +++
S. cerevisiae JAY 270; 0.20% (w/v)
  Cell growth score (colony size): +
S. cerevisiae JAY 270; molar equivalent of the % w/v value
  Concentration at which cell growth was reduced in the plate assay: 7.2 mM
S. cerevisiae JAY 270; tested concentrations, 24-well plates
  Effect on cell growth in the plate assay (words): inhibited growth; also recorded: reduced the growth
S. cerevisiae ATCC 26603; S. cerevisiae ATCC 26603
  Biomass Yield: 0.056 ± 0.003 g/g
  Biomass yield % change vs. control: −21* %
  EtOH yield: 0.467 ± 0.015 g/g
  EtOH yield % change vs. control: +7.7* %
  Glycerol yield: 0.064 ± 0.006 g/g
  Glycerol yield % change vs. control: −12* %
S. cerevisiae ATCC 26603; S. cerevisiae ATCC 26603, YPD
  DCW: 1.53 mg
  DCW Δ vs. ref: 86.8%
  OD600: 1.34
  OD600 Δ vs. ref: 95.5%
S. cerevisiae ATCC 26603; [1]
  Biomass Yield: 0.056 + 0.003 g/g
  Biomass yield Δ vs. ref: −20.6%
  Ethanol yield: 0.467 ± 0.015 g/g
  Ethanol yield Δ vs. ref: 7.7%
  Glycerol yield: 0.064 ± 0.006 g/g
  Glycerol yield Δ vs. ref: −11.82%
S. cerevisiae JAY 238; S. cerevisiae JAY 238
  Biomass Yield: 0.058 ± 0.001 g/g
  Biomass yield % change vs. control: −14* %
  EtOH yield: 0.455 ± 0.016 g/g
  EtOH yield % change vs. control: +8.3* %
  Glycerol yield: 0.036 ± 0.002 g/g
  Glycerol yield % change vs. control: −8.3%
S. cerevisiae JAY 238; S. cerevisiae JAY 238, YPD
  DCW: 2.35 mg
  DCW Δ vs. ref: 83.9%
  OD600: 1.99
  OD600 Δ vs. ref: 85.0%
S. cerevisiae JAY 238; [2]
  Biomass Yield: 0.058 + 0.001 g/g
  Biomass yield Δ vs. ref: −13.9%
  Ethanol yield: 0.455 ± 0.016 g/g
  Ethanol yield Δ vs. ref: 8.3%
  Glycerol yield: 0.036 ± 0.002 g/g
  Glycerol yield Δ vs. ref: −8.30%
S. cerevisiae JAY 240; S. cerevisiae JAY 240
  Biomass Yield: 0.061 ± 0.002 g/g
  Biomass yield % change vs. control: −16* %
  EtOH yield: 0.446 ± 0.022 g/g
  Glycerol yield: 0.034 ± 0.001 g/g
  Glycerol yield % change vs. control: −15* %
S. cerevisiae JAY 240; S. cerevisiae JAY 240, YPD
  DCW: 2.65 mg
  DCW Δ vs. ref: 86.9%
  OD600: 2.09
  OD600 Δ vs. ref: 83.9%
S. cerevisiae JAY 240; [3]
  Biomass Yield: 0.061 + 0.002 g/g
  Biomass yield Δ vs. ref: −15.7%
  Ethanol yield: 0.446 ± 0.022 g/g
  Ethanol yield Δ vs. ref: 10.1%
  Glycerol yield: 0.034 ± 0.001 g/g
  Glycerol yield Δ vs. ref: −14.77%
S. cerevisiae JAY 241; S. cerevisiae JAY 241
  Biomass Yield: 0.049 ± 0.000 g/g
  Biomass yield % change vs. control: −16* %
  EtOH yield: 0.422 ± 0.013 g/g
  Glycerol yield: 0.043 ± 0.000 g/g
  Glycerol yield % change vs. control: −23* %
S. cerevisiae JAY 241; S. cerevisiae JAY 241, YPD
  DCW Δ vs. ref: 88.7%
  OD600: 1.68
  OD600 Δ vs. ref: 84.0%
S. cerevisiae JAY 241; [4]
  Biomass Yield: 0.049 + 0.000 g/g
  Biomass yield Δ vs. ref: −15.7%
  Ethanol yield: 0.422 ± 0.013 g/g
  Ethanol yield Δ vs. ref: 10.4%
  Glycerol yield: 0.043 ± 0.000 g/g
  Glycerol yield Δ vs. ref: −23.39%
